Literature values, collected in patent publication US20240325308A1, “AMNIOTIC FLUID STABILIZED COMPOSITIONS AND METHODS FOR IN UTERO DELIVERY OF THERAPEUTIC AGENTS” (The Trustees of the University of Pennsylvania, priority 2021, published 2024).

System: fetal lung
Details: vitelline vein injection, gestational age E16 fetuses

Compound: CCCCCCCCCCCCC(O)CN(CCOCCN(CC(O)CCCCCCCCCCCC)CC(O)CCCCCCCCCCCC)CCN1CCN(CCOCCN(CC(O)CCCCCCCCCCCC)CC(O)CCCCCCCCCCCC)CC1 (stereo not shown) [B-4, 1,1′-((2-(2-(4-(2-((2-(2-(bis(2-hydroxytetradecyl)amino)ethoxy)ethyl)(2-hydroxytetradecyl)amino)ethyl)piperazin-1-yl)ethoxy)ethyl)azanediyl)bis(tetradecan-2-ol)]
- Fetal lung delivery of LNPs formulated with the ionizable lipid: highest fetal lung delivery
